Source: patent US8092816B2, “Insecticidal compositions for control of general household pests” (priority 2004, dated 2012)

Tested on: Oriental cockroach
Assay: Example 15: Oriental cockroach knockdown and mortality, bifenthrin and clothianidin
Format: in vivo
Excerpt: The following examples further illustrate the present invention, but, of course, should not be construed as in any way limiting its scope. The examples set forth certain biological data illustrating the efficacy of the compositions of the present invention in controlling general household pests. Each example embodies a separate test wherein the pests were randomly selected from a population at a random age. As a result, from example to example, the ages of the pests can be very different. This age difference potentially translates to different baselines for each example. Therefore, data should only be compared within the example and not from example to example due to the differences in age of the pests from example to example. Unless otherwise indicated, all parts, percentages, and the like are by weight. The spray chamber used in the examples was approximately 76 inches tall, 73 inches long and 31 inches deep with an adjustable shelf (approximately 22 inches deep) and a movable spray nozzle. The spray chambers were calibrated to deliver a volume of approximately 1 gallon of liquid per 1000 square feet of area at about 14 pounds per square inch of pressure. A DeVilbiss hand held sprayer (Atomizer model 152) manufactured by DeVilbiss located in Glendale Heights, Ill. was used in testing house flies and mosquitoes. The DeVilbiss was used to apply approximately 3-5 milliliters of product at about 10 pounds per square inch.
The compositions of the present invention were tested for Oriental cockroach activity in the following manner:
Test compositions made up of TALSTARONE® MULTI-INSECTICIDE and a 16% a.i. water dispersible granular of clothianidin in distilled water were prepared that provided appropriate rates of application of combinations of bifenthrin and clothianidin, as well as bifenthrin and clothianidin alone.
The spray chamber was then calibrated to deliver the treatment solution at the desired volume and pressure over the desired area on the chamber shelf. Spray chamber shelf height was adjusted to approximately 18 inches from the spray tip. The shelf was then covered with aluminum foil and the center of the shelf from front-to-back and end-to-end was determined. A desired number of 4.0″ sieve circles were marked on the aluminum foil with a permanent marker. The inside of a desired number of PVC rings were coated with a petroleum jelly/mineral oil mixture (1:2 ratio). The PVC rings were place on the sieve circles. 10 male Oriental cockroaches were placed inside each PVC ring. The sprayer was activated and the test compound was applied to each PVC ring interior. Oriental cockroach knockdown and mortality were measured.

[1] = rate of appln. 10 PPM (0.001% by weight)
[2] = rate of appln. 50 PPM (0.005% by weight)

Question: Cc1c(COC(=O)[C@@H]2[C@H](/C=C(\Cl)C(F)(F)F)C2(C)C)cccc1-c1ccccc1 (racemic) [A, 2-methylbiphenyl-3-ylmethyl (Z)-(1RS)-cis-3-(2-chloro-3,3,3-trifluoroprop-1-enyl)-2,2-dimethylcyclopropanecarboxylate] was tested. Which “Knockdown Rate @ 10 minute” value [1] did it give?
Answer: Its value is 0%.

Question: What about the “Knockdown Rate @ 15 minute” value [1] of the same compound?
Answer: The value was 0%.

Question: And the “Knockdown Rate @ 30 minute” value [1]?
Answer: Its value is 0%.

Question: And the “Mortality Rate @ 60 minute” value [1]?
Answer: The value was 0%.

Question: And the “Mortality Rate @ 120 minute” value [1]?
Answer: The value was 0%.

Question: What about the “Mortality Rate @ 4 hours” value [1] of the same compound?
Answer: Its value is 0%.

Question: And the “Mortality Rate @ 1 day” value [1]?
Answer: Its value is 0%.

Question: And the “Mortality Rate @ 2 days” value [1]?
Answer: The value was 3%.

Question: And the “Knockdown Rate @ 10 minute” value [2]?
Answer: The value was 0%.

Question: What about the “Knockdown Rate @ 15 minute” value [2] of the same compound?
Answer: The value was 0%.

Question: And the “Knockdown Rate @ 30 minute” value [2]?
Answer: Its value is 0%.

Question: What about the “Mortality Rate @ 60 minute” value [2] of the same compound?
Answer: The value was 0%.

Question: What about the “Mortality Rate @ 120 minute” value [2] of the same compound?
Answer: Its value is 0%.

Question: And the “Mortality Rate @ 4 hours” value [2]?
Answer: Its value is 10%.

Question: And the “Mortality Rate @ 1 day” value [2]?
Answer: The value was 20%.

Question: What about the “Mortality Rate @ 2 days” value [2] of the same compound?
Answer: Its value is 23%.
